According to patent US20120145955A1, “COMPOSITION OF HCFO-1233zd AND POLYOL BLENDS FOR USE IN POLYURETHANE FOAM” (Arkema Inc., priority 2009, published 2012):
Read-outs that look alike come from different tables or passages of the source.

Tests used:
[1] = AMES testing (genotoxicity); type: cell-based; settings: trans isomer of HCFO-1233zd compared with the cis isomer
[2] = Solubility experiments: vapor pressure of blowing agent in polyol in a pressure vessel; type: physicochemical
Method: The vapor pressure of a foam blowing agent in polyurethane materials was evaluated in an experimental apparatus consisting of a pressure vessel with magnetic stirring, a pressure transducer and a temperature transducer. The temperature inside the vessel was controlled within 0.1° C. and the pressure controlled to within 0.1%.
Into the pressure vessel (volume about 100 ml), 50 g of polyol was loaded. The vessel was then placed under vacuum to remove air. The change of pressure in the metal cylinder was monitored to ensure that there were no leaks. The blowing agent was introduced into the vessel by the use of a specially designed gas syringe. The amount of blowing agent loaded was verified by measuring the weight of the syringe before and after introduction. The temperature of the vessel was maintained at 50° C. (above the boiling point of the blowing agents being tested) and the speed of the shaker was maintained at 300 rpm. The vapor pressure of the blowing agent was recorded as a function of the time. Sufficient time was allowed for the system to reach equilibrium. After reaching equilibrium, the amount of blowing agent dissolved in the polyol was calculated as the difference between the added blowing agent […] and the blowing agent present in the gas phase of the vessel.
Then another small amount of blowing agent was added in the vessel. The procedure was repeated several times until the pressure in the vessel was equal to the liquid-gas equilibrium vapor pressure of the blowing agent at this temperature (maximum attainable pressure at temperatures below the critical temperature of the blowing agent).

[3] = known to the people skilled in the art; cited from earlier work

SMILES: FC(F)(F)/C=C/Cl [E-HCFO-1233zd]
- genotoxicity in AMES testing [1]: significantly lower genotoxicity
- area between the polyether polyol and polyester polyol curves (range of solubilities) ([2]; compared with HCFC141b and HFC245fa, 50° C.): significantly larger
- solubility relative to current blowing agents ([2]; polyether polyol and polyester polyol, 50° C.): solubility comparable to current blowing agents
- solubility curves (vapor pressure versus part of blowing agent per 100 part of polyol by weight) ([2]; polyether polyol and polyester polyol, 50° C., FIG. 1): between those for HFC245fa and HCFC141b

SMILES: FC(F)(F)/C=C/Cl [HCFO-1233zd, trifluoro-monochloropropenes]
- solubility in polyols ([2]; different ratios of polyether polyols and polyester polyols, benchmarked against HCFC141b and HFC245fa): falls in between HFC245fa and HCFC141b

SMILES: FC(F)CC(F)(F)F [HFC245fa]
- solubility in polyols [3]: relatively less soluble
